Experimental data from US9187768B2, “Alcoholic fermentation yeast and method for producing ethanol using same” (NIPPON STEEL & SUMIKIN ENGINEERING CO., LTD., priority 2010, dated 2015).

Tested on: general yeast
Assay: Ethanol fermentation by a general yeast with limonene added to YPD culture medium
Format: cell-based, Saccharomyces Cerevisiae
Conditions: 0.1% v/v of limonene added
Excerpt: Generally, yeast is present in a sugar solution as fine solid particles and easily adsorbs oily substances. Therefore, the reason for the above-described experimental results may be that the limonene (in an oil form) added in a small amount (0.05% v/v) adsorbed to the yeast, causing fermentation inhibition. To remove limonene, which is a fermentation inhibitor, from a juice residue extract, limonene in a solid form, which accounts for 75% or larger of the total amount of limonene, must be removed, and limonene in a micelle form present as a light liquid (an oily substance) must also be removed. […] Therefore, fermentability tended to be unstable due to the influence of contamination etc. and it was difficult to maintain high fermentability over a long period of time.

Which “rate of ethanol production” value does the source give for `C=C(C)[C@H]1CC=C(C)CC1` [limonene] here?
Its value is “about 20%”.
